According to US20200064357A1, “METHODS FOR DETERMINING AND MONITORING GASTROINTESTINAL INFLAMMATION” (Protagonist Therapeutics, Inc., priority 2016, published 2020):

Test system: Sprague-Dawley rats
Experiment: Biomarkers in colon of TNBS-induced acute colitis rats (Example E1)
Type: in vivo, rat
Conditions: protein by ELISA, vs vehicle treated controls, Peptide 993 65 mg/kg/day; for IL-22 level in colon / MPO level in colon: Peptide 980 37 mg/kg/day
Description: The effect of treatment with peptide inhibitors of IL23R on inflammatory markers associated with IL23 signaling was examined in a rat model of acute colitis. Acute colitis was induced in Sprague-Dawley rats by a single intra-rectal instillation of 2,4,6-Trinitrobenzenesulfonic acid (TNBS) followed by efficacy analysis at day seven. Pharmacodynamic (PD) biomarkers were examined using enzyme-linked immunosorbent assay (ELISA), quantitative reverse transcription polymerase chain reaction, or immunohistochemistry analysis of colon, feces, or serum samples obtained from colitic rats treated with Peptide 993, Peptide 1185, or Peptide 980.
Acute colitis was induced by providing 7-week-old female Sprague-Dawley rats with various dosages of 64 mg/kg or 48 mg/kg of TNBS in 50% ethanol (TNBS/ethanol) administered intrarectally at Day 0. Peptide inhibitors were administered orally two or three times a day at various dosages and were provided in drinking water at various dosages, for 8 days starting approximately 24 hours (Day −1) prior TNBS inoculation.
Levels of a number of inflammatory biomarkers were examined in the colons. The distal colon tissue samples, designated for protein expression analysis, were flash frozen after collection. For protein extraction, the samples were thawed, weighed and homogenized in the extraction buffer (PBS pH 7.2 supplemented with Protease Inhibitors, 3× volume:weight). The homogenates were centrifuged at 13 krpm at 4° C. for 15 minutes, a total of two times to remove the debris. The supernatants were saved in multiple aliquots in −80° C. and subsequently used for protein expression analysis on ELISA. The total protein in each sample was quantified using BCA assay. MPO, IL-10, IL-6, IL-17A and IL-22 biomarker protein expression in the distal colon samples was analyzed using commercially available rat ELISA kits.

CC(=O)NCCCCC(NC(=O)C1(NC(=O)C(Cc2ccc3ccccc3c2)NC(=O)C(Cc2ccc(OCCN)cc2)NC(=O)C2NC(=O)C(CCC(N)=O)NC(=O)C(Cc3c[nH]c4ccccc34)NC(=O)C(C(C)O)NC(=O)C(CC(N)=O)NC(=O)C(NC(C)=O)C(C)(C)SSC2(C)C)CCOCC1)C(=O)NC(CC(N)=O)C(=O)NC(CC(N)=O)C(N)=O (centres unmarked) [Peptide 1185, Ac-cyclo[[Pen]-NTWQ-[Pen]]-[Phe[4-(2-aminoethoxy)]]-[2-Nal]-[4-amino-4-carboxy-tetrahydropyran]-[Lys(Ac)]-NN-NH2]
IL-17A level in colon: did not significantly reduce | IL-22 level in colon: did not significantly reduce | MPO level in colon: did not significantly reduce

Ac-cyclo[[Abu]-QTWQC]-[Phe[4-(2-aminoethoxy)]]-[2-Nal]-[4-amino-4-carboxy-tetrahydropyran]-ENN-NH2 [Peptide 980]
IL-22 level in colon: reduced | MPO level in colon: reduced
